From patent US10450297B2, “Sulfonyl amide derivatives for the treatment of abnormal cell growth” (Pfizer, Inc., priority 2007, dated 2019)

Target: FAK kinase (catalytic construct FAK(410-689)) (Homo sapiens (Human), UniProt Q05397)
Assay: FAKcd kinase ELISA (inhibition of poly-glu-tyr phosphorylation by FAK(410-689))
Type: biochemical
Conditions: 50 μM final ATP

Chain of FAK kinase (catalytic construct FAK(410-689)) (Q05397 410-689): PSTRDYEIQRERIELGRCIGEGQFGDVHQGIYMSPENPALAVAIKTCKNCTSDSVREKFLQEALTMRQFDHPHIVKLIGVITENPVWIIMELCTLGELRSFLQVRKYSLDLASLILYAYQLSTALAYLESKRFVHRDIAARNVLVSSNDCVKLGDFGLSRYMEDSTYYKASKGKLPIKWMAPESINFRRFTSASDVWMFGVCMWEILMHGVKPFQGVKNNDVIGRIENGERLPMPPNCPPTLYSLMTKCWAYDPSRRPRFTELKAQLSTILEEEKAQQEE

Row | SMILES | IC50 [nM]
1 | CC(=O)NCCNC(=O)c1ccc(Nc2ncc(C(F)(F)F)c(NCc3cccnc3N(C)S(C)(=O)=O)n2)cc1 [Compound 245, N-[2-(acetylamino)ethyl]-4-({4-[({2-[methyl(methylsulfonyl)amino]pyridin-3-yl}methyl)amino]-5-(trifluoromethyl)pyrimidin-2-yl}amino)benzamide] | 2.62
2 | CN(c1ncccc1CNc1nc(Nc2ccc(C(=O)NCC3(O)CCC3)cc2)ncc1C(F)(F)F)S(C)(=O)=O [Compound 246, N-[(1-hydroxycyclobutyl)methyl]-4-({4-[({2-[methyl(methylsulfonyl)amino]pyridin-3-yl}methyl)amino]-5-(trifluoromethyl)pyrimidin-2-yl}amino)benzamide] | 0.6
3 | CN(c1ncccc1CNc1nc(Nc2ccc(C(=O)N3CCCC(O)C3)cc2)ncc1C(F)(F)F)S(C)(=O)=O (stereo not drawn) [Compound 247, N-[3-({[2-({4-[(3-hydroxypiperidin-1-yl)carbonyl]phenyl}amino)-5-(trifluoromethyl)pyrimidin-4-yl]amino}methyl)pyridin-2-yl]-N-methylmethane-sulfonamide] | 0.63
4 | CN(c1ncccc1CNc1nc(Nc2ccc(C(=O)NCc3ccccn3)cc2)ncc1C(F)(F)F)S(C)(=O)=O [Compound 248, 4-({4-[({2-[methyl(methylsulfonyl)amino]pyridin-3-yl}methyl)amino]-5-(trifluoromethyl)pyrimidin-2-yl}amino)-N-(pyridin-2-ylmethyl)benzamide] | 9.35
5 | CN(c1ncccc1CNc1nc(Nc2ccc(C(=O)N3CC[C@@H](O)C3)cc2)ncc1C(F)(F)F)S(C)(=O)=O [Compound 249, N-{3-[({2-[(4-{[(3R)-3-hydroxypyrrolidin-1-yl]carbonyl}phenyl)amino]-5-(trifluoromethyl)pyrimidin-4-yl}amino)methyt]pyridin-2-yl}-N-methylmethane-sulfonamide] | 1.91
6 | CN1CCC(NC(=O)c2ccc(Nc3ncc(C(F)(F)F)c(NCc4cccnc4N(C)S(C)(=O)=O)n3)cc2)CC1 [Compound 250, 4-({4-[({2-[methyl(methylsulfonyl)amino]pyridin-3-yl}methyl)amino]-5-(trifluoromethyl)pyrimidin-2-yl}amino)-N-(1-methylpiperidin-4-yl)benzamide] | 0.69
7 | CN(C)CCNC(=O)c1ccc(Nc2ncc(C(F)(F)F)c(NCc3cccnc3N(C)S(C)(=O)=O)n2)cc1 [Compound 251, N-[2-(dimethylamino)ethyl]-4-({4-[({2-[methyl(methylsulfonyl)amino]pyridin-3-yl}methyl)amino]-5-(trifluoromethyl)pyrimidin-2-yl}amino)benzamide] | 1.21
8 | CN(c1ncccc1CNc1nc(Nc2ccc(C(=O)NCC3CC3)cc2)ncc1C(F)(F)F)S(C)(=O)=O [Compound 252, N-(cyclopropylmethyl)-4-({4-[({2-[methyl(methylsulfonyl)amino}pyridin-3-yl}methyl)amino]-5-(trifluoromethyl)pyrimidin-2-yl}amino)benzamide] | 1.48
9 | CN(c1ncccc1CNc1nc(Nc2ccc(C(=O)N3CCC3)cc2)ncc1C(F)(F)F)S(C)(=O)=O [Compound 253, N-[3-({[2-{[4-(azetidin-1 - ylcarbonyl)phenyl]amino}-5-(trifluoromethyl)pyrimidin-4-yl]amino}methyl)pyridin-2-yl]-N-methylmethane-sulfonarriide] | 0.6
10 | CN(c1ncccc1CNc1nc(Nc2ccc(C(=O)N3CCNC(=O)C3)cc2)ncc1C(F)(F)F)S(C)(=O)=O [Compound 254, N-methyl-N-[3-({[2-({4-[(3-oxopiperazin-1-yl)carbonyl]phenyl}amino)-5-(trifluoromethyl)pyrimidin-4-yl]amino}methyl)pyridin-2-yl]methanesulfonamide] | 1.33
11 | CN(c1ncccc1CNc1nc(Nc2ccc(C(=O)NCCCO)cc2)ncc1C(F)(F)F)S(C)(=O)=O [Compound 255, N-(3-hydroxypropyl)-4-({4-[({2-[methyl(methylsulfonyl)amino]pyridin-3-yl}methyl)amino]-5-(trifluoromethyl)pyrimidin-2-yl}amino)benzamide] | 0.82
12 | CN(c1ncccc1CNc1nc(Nc2ccc(C(=O)NCC(C)(C)CO)cc2)ncc1C(F)(F)F)S(C)(=O)=O [Compound 256, N-(3-hydroxy-2,2-dimethylpropyl)-4-({4-[({2-[methyl(methylsulfonyl)amino]pyridin-3-yl}methyl)amino]-5-(trifluoromethyl)pyrimidin-2-yl}amino)benzamide] | 1.57
13 | CCC[C@H](CO)NC(=O)c1ccc(Nc2ncc(C(F)(F)F)c(NCc3cccnc3N(C)S(C)(=O)=O)n2)cc1 [Compound 257, N-[(1R)-1-(hydroxymethyl)butyl]-4-({4-[({2-[methyl(methylsulfonyl)amino]pyridin-3-yl}methyl)amino]-5-(trifluoromethyl)pyrimidin-2-yl}amino)benzamide] | 5.8
14 | CN(c1ncccc1CNc1nc(Nc2ccc(C(=O)N3CCCCC3)cc2)ncc1C(F)(F)F)S(C)(=O)=O [Compound 258, N-methyl-N-[3-({[2-{[4-(piperidin-1-ylcarbonyl)phenyl]amino}-5-(trifluoromethyl)pyrimidin-4-yl]amino}methyl)pyridin-2-yl]methanesulfonamide] | 1.79
15 | CN(C)C(=O)CNC(=O)c1ccc(Nc2ncc(C(F)(F)F)c(NCc3cccnc3N(C)S(C)(=O)=O)n2)cc1 [Compound 259, N-[2-(dimethylamino)-2-oxoethyl]-4-({4-[({2-[methyl(methylsulfonyl)amino]pyridin-3-yl}methyl)amino]-5-(trifluoromethyl)pyrimidin-2-yl}amino)benzamide] | 1.57
16 | CN(c1ncccc1CNc1nc(Nc2ccc(C(=O)N3CCC[C@H](O)C3)cc2)ncc1C(F)(F)F)S(C)(=O)=O [Compound 260, N-{3-[({2-[(4-{[(3S)-3-hydroxypiperidin-1-yl]carbonyl}phenyl)amino]-5-(trifluoromethyl)pyrimidin-4-yl}amino)methyl]pyridin-2-yl}-N-methylmethanesulfonamide] | 2.3
17 | C[C@H]1COCCN1C(=O)c1ccc(Nc2ncc(C(F)(F)F)c(NCc3cccnc3N(C)S(C)(=O)=O)n2)cc1 [Compound 261, N-methyl-N-{3-[({2-[(4-{[(3S)-3-rnethylmorpholin-4-yl]carbonyl}phenyl)amino]-5-(trifluoromethyl)pyrimidin-4-yl}amino)methyl]pyridin-2-yl}methanesulfonamide] | 1.13
18 | CN(C(=O)c1ccc(Nc2ncc(C(F)(F)F)c(NCc3cccnc3N(C)S(C)(=O)=O)n2)cc1)C1CCCC1 [Compound 262, N-cyclopentyl-N-methyl-4-({4-[({2-[methyl(methylsulfonyl)amino]pyridin-3-yl}methyl)amino]-5-(trifluoromethyl)pyrimidin-2-yl}amino)benzamide] | 5.8
19 | CN(c1ncccc1CNc1nc(Nc2ccc(C(=O)NC3CCCOC3)cc2)ncc1C(F)(F)F)S(C)(=O)=O (stereo not drawn) [Compound 263, 4-({4-(({2-[methyl(methylsulfonyl)amino]pyridin-3-yl}methyl)amino]-5-(trifluoromethyl)pyrimidin-2-yl}amino)-N-(tetrahydro-2H-pyran-3-yl)benzamide] | 0.81
20 | CN(c1ncccc1CNc1nc(Nc2ccc(C(=O)NC(CO)CO)cc2)ncc1C(F)(F)F)S(C)(=O)=O [Compound 264, N-[2-hydroxy-1-(hydroxymethyl)ethyl]-4-({4-[({2-[methyl(methylsulfonyl)amino]pyridin-3-yl}methyl)amino]-5-(trifluoromethyl)pyrimidin-2-yl}amino)benzamide] | 4.6
21 | CC1CCN(C(=O)c2ccc(Nc3ncc(C(F)(F)F)c(NCc4cccnc4N(C)S(C)(=O)=O)n3)cc2)CC1 [Compound 265, N-methyl-N-[3-({[2-({4-[(4-methylpiperidin-1-yl)carbonyl]phenyl}amino)-5-(trifluoromethyl)pyrimidin-4-yl]amino}methyl)pyridin-2-yl]methanesulfonamide] | 0.6
22 | CN(c1ncccc1CNc1nc(Nc2ccc(C(=O)N3CCC(F)(F)C3)cc2)ncc1C(F)(F)F)S(C)(=O)=O [Compound 266, N-[3-({[2-({4-[(3.3-difluoropyrrolidin-1-yl)carbonyl]phenyl}amino)-5-(trifluoromethyl)pyrimidin-4-yl]amino}methyl)pyridin-2-yl]-N-methylmethane-sulfonamide] | 0.6
23 | CN(c1ncccc1CNc1nc(Nc2ccc(C(=O)N3CC[C@H](O)C3)cc2)ncc1C(F)(F)F)S(C)(=O)=O [Compound 267, N-{3-[({2-[(4-{[(3S )-3-hydroxypyrrolidin-1-yl]carbonyl}phenyl)amino]-5-(trifluoromethyl)pyrimidin-4-yl}amino)methyl]pyridin-2-yl}-N-methylmethane-sulfonamide] | 1.15
24 | CN(c1ncccc1CNc1nc(Nc2ccc(C(=O)N3CCC(C)(O)C3)cc2)ncc1C(F)(F)F)S(C)(=O)=O (stereo not drawn) [Compound 268, N-[3-({[2-({4-[(3-hydroxy-3-methylpyrrolidin-1 - yl)carbonyl]phenyl}amino)-5-(trifluoromethyl)pyrimidin-4-yl]amino}methyl)pyridin-2-yl]-N-methylmethane-sulfonamide] | 2.62
25 | CCCN(CCO)C(=O)c1ccc(Nc2ncc(C(F)(F)F)c(NCc3cccnc3N(C)S(C)(=O)=O)n2)cc1 [Compound 269, N-(2-hydroxyethyl)-4-({4-[({2-[methyl(methylsulfonyl)amino]pyridin-3-yl}methyl)amino]-5-(trifluoromethyl)pyrimidin-2-yl}amino)-N-propylbenzamide] | 8.69
26 | CN(c1ncccc1CNc1nc(Nc2ccc(C(=O)NCCCCCO)cc2)ncc1C(F)(F)F)S(C)(=O)=O [Compound 270, N-(5-hydroxypentyl)-4-({4-[({2-[methyl(methylsulfonyl)amino]pyridin-3-yl}methyl)amino]-5-(trifluoromethyl)pyrimidin-2-yl}amino)benzamide] | 0.99
27 | CN(c1ncccc1CNc1nc(Nc2ccc(C(=O)NCc3ccccc3)cc2)ncc1C(F)(F)F)S(C)(=O)=O [Compound 271, N-benzyl-4-({4-[({2-[methyl(methylsulfonyl)amino]pyridin-3-yl}methyl)amino]-5-(trifluoromethyl)pyrimidin-2-yl}amino)benzamide] | 1.14
